Literature values, collected in US11136251B2, “Compositions, methods, and devices for capturing phosphate from water” (REGENTS OF THE UNIVERSITY OF MINNESOTA, priority 2017, dated 2021).

selectivity for HPO4^2− over HCO3^− / bicarbonate binding: two-fold
SMILES: O=C([O-])CN(CCN(CC(=O)[O-])CC(=O)O)CCN(CC(=O)[O-])CC(=O)O.[Gd+3] [Gd-DTPA]
